Laboratory results published in US9951064B2, “Azaindazole compounds as inhibitors of T790M containing EGFR mutants” (Genentech, Inc., priority 2013, dated 2018).

Experiments:
[1] = biological target: T1, EGFR T790M L858R (Homo sapiens, UniProt P00533, L858R/T790M); test: EGFR T790M L858R biochemical assay (Caliper mobility shift); conditions: 5 μM ATP; apparent Ki (Morrison fit) converted by Cheng-Prusoff, Km of ATP 1.3 μM
T1 construct: purchased Life Technologies PV4879
Method in brief: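 Caliper mobility-shift read-out, electrophoretic separation of substrate from product, after a 30-minute kinase reaction at 22 °C. EDTA at 80 mM terminates each reaction.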

[2] = biological target: T2, EGFR del746-750 T790M (Homo sapiens, UniProt P00533, DEL746-750/T790M); test: EGFR del746-750 T790M biochemical assay (Caliper mobility shift); conditions: 5 μM ATP; apparent Ki (Morrison fit) converted by Cheng-Prusoff, Km of ATP 2.1 μM; read-out: EGFR(T790M/d746-750) Ki
T2 construct: purchased Carna Biosciences 08-528
T2 sequence (P00533 with tags, fused parts or gaps DEL746-750/T790M limits assumed): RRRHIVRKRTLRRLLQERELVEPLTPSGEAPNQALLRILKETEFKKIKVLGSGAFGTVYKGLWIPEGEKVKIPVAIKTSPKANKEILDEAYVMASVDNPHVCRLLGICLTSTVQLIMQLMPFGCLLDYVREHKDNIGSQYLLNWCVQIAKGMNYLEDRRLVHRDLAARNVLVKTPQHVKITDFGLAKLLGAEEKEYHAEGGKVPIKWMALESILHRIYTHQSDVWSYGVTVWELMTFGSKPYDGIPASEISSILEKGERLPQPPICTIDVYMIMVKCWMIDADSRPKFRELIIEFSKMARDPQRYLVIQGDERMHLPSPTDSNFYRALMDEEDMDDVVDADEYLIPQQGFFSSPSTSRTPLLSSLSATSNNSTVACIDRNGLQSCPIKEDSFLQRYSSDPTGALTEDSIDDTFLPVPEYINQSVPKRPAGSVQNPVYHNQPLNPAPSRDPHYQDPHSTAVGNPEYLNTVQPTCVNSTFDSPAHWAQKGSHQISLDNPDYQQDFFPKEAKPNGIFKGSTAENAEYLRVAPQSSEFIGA
Procedure: The exemplified compounds described herein were tested according to the assay below. The enzyme data reported in Tables 4-5 is generally a representative of multiple experiments.
Reactions proceed for 30 minutes at room temperature (22° C.) and are terminated with 80 mM 2,2′,2″,2″′-(ethane-1,2-diyldinitrilo)tetraacetic acid (EDTA). Product is detected using the Caliper mobility shift detection method where product and substrate are electrophoretically separated and measured.

[3] = biological target: T3, phosphor-EGFR in H1975(L585R/T790M) mutant EGFR expressing cells (Homo sapiens, UniProt P00533, L858R/T790M); test: H1975 pEGFR MSD cellular assay; type: cell-based; conditions: NCI-H1975 cells, serum starved, 1 hour compound incubation, pEGFR Tyr1068 MSD; read-out: HI975 pEGFR EC50
T3 construct: host or cells: NCI-H1975
T3 sequence (P00533 25-1210 T790M/L858R): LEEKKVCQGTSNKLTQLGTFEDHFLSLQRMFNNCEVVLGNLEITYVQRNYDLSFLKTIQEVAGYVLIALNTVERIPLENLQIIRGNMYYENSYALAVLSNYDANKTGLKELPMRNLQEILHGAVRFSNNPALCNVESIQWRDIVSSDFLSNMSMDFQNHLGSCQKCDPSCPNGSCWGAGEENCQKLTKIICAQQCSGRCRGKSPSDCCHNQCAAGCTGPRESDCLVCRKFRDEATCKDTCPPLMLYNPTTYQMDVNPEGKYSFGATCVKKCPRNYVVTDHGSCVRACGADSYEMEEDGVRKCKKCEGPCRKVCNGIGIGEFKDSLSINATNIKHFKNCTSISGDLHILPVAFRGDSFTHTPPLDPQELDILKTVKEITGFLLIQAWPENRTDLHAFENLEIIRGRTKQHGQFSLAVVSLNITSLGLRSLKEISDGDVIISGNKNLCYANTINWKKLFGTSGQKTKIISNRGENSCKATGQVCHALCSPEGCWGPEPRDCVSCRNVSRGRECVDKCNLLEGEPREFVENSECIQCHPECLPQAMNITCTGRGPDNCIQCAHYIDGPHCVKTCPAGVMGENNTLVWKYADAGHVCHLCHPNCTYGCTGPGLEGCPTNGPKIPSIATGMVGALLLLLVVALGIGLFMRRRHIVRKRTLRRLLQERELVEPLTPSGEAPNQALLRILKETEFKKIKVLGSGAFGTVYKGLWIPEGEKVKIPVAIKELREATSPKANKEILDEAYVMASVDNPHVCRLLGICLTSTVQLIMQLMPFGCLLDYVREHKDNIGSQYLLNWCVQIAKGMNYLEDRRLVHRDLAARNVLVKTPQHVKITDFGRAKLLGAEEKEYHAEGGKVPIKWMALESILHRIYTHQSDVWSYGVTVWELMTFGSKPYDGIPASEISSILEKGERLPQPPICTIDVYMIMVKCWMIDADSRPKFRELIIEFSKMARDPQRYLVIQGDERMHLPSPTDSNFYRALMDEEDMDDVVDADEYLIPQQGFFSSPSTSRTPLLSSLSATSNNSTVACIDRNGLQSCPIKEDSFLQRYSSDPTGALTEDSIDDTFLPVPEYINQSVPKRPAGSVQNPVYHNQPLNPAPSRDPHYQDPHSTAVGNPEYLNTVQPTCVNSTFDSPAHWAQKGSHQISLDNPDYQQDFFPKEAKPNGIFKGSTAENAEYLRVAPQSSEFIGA
Method in brief: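 Phospho-EGFR read by MSD electrochemiluminescence: capture with anti-pEGFR antibody (overnight, 4° C), detection with SULFO-TAG anti-total EGFR (1 hour, room temperature). Before lysis, H1975 cells starved of serum overnight got compound for 1 hour at 37° C, 0.5% DMSO final. EC50 via four-parameter logistic regression of percent inhibition.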

[4] = system: H1975 (EGFR T790M/L858R) cell proliferation; test: H1975 proliferation assay (Cell Titer-Glo); type: cell-based; conditions: Homo sapiens, NCI-H1975, 72 h, NCI-H1975 cells, 72 hour incubation, read-out: H1975 antiproliferative EC50
Procedure: H1975 Proliferation Assays
All cell culture reagents were purchased from Invitrogen/Gibco. Cells are cultured at 37° C. at 5% CO2 and split as recommended by ATCC.

T1 sequence (P00533 25-1210 T790M/L858R): as above

Row | Ki [1] [nM] | Ki [2] [nM] | EC50 [3] [nM] | EC50 [4] [nM] | SMILES
1 | 6.2 | 33.1 | 703 | 1070 | CC(n1nc(N2CCNC2=O)c2cnc(Nc3ccnc(N4CCC(C)(O)CC4)n3)cc21)C(F)(F)F (stereo not shown) [Example 171, 1-(6-(2-(4-Hydroxy-4-methylpiperidin-1-yl)pyrimidin-4-ylamino)-1-(1,1,1-trifluoropropan-2-yl)-1H-pyrazolo[4,3-c]pyridin-3-yl)imidazolidin-2-one]
2 | 0.7 | 0.5 | 189 | 1830 | CC(C)n1nc(N2CC(C(=O)N3CC[C@@H](CO)C3)C2)c2cnc(Nc3ccnc(-c4cnn(S(=O)(=O)C5CC5)c4)n3)cc21 [Example 167, (R)-(1-(6-(2-(1-(cyclopropylsulfonyl)-1H-pyrazol-4-yl)pyrimidin-4-ylamino)-1-isopropyl-1H-pyrazolo[4,3-c]pyridin-3-yl)azetidin-3-yl)(3-(hydroxymethyl)pyrrolidin-1-yl)methanone]
3 | 5.8 | 14 |  | > 10000 | CCC(C)n1nc(N2CC[C@H](O)C2=O)c2cnc(Nc3ccnc(N4CC[C@@H](O)[C@@H](F)C4)n3)cc21 (stereo partly drawn) [Example 201, (3S)-1-(1-(sec-Butyl)-6-((2-((3S,4R)-3-fluoro-4-hydroxypiperidin-1-yl)pyrimidin-4-yl)amino)-1H-pyrazolo[4,3-c]pyridin-3-yl)-3-hydroxypyrrolidin-2-one]
4 | 302 | 201 |  | > 10000 | CC1COCC(C)N1c1nn(C(C)C)c2cc(Nc3ccnc(-c4cnn(S(=O)(=O)C5CC5)c4)n3)ncc12 (stereo not shown) [Example 180, N-(2-(1-(Cyclopropylsulfonyl)-1H-pyrazol-4-yl)pyrimidin-4-yl)-3-(3,5-dimethylmorpholino)-1-isopropyl-1H-pyrazolo[4,3-c]pyridin-6-amine]
5 | 377 | 1150 |  |  | CC(C)n1nc(NC(C)(C)C(N)=O)c2cnc(Nc3ccnc(N4CC[C@H](O)[C@H](F)C4)n3)cc21 (racemic) [Example 182, (±)-2-(6-(2-(cis-3-Fluoro-4-hydroxypiperidin-1-yl)pyrimidin-4-ylamino)-1-isopropyl-1H-pyrazolo[4,3-c]pyridin-3-ylamino)-2-methylpropanamide]
6 | 143 | 111 |  |  | CC[C@H](C)n1nc(N2CC[C@@H](O)C2)c2cnc(Nc3ccnc(N4CC[C@](C)(C(N)=O)C4)n3)cc21 (relative stereo) [Example 209, (S*)-1-(4-((1-((S*)-sec-Butyl)-3-((R)-3-hydroxypyrrolidin-1-yl)-1H-pyrazolo[4,3-c]pyridin-6-yl)amino)pyrimidin-2-yl)-3-methylpyrrolidine-3-carboxamide]
7 | 11.5 | 33.7 |  |  | CCC(=O)N1CCN(c2nn(C(C)C)c3cc(Nc4ccnc(N5CCC(C)(O)CC5)n4)ncc23)CC1 [Example 134, 1-(4-(6-(2-(4-Hydroxy-4-methylpiperidin-1-yl)pyrimidin-4-ylamino)-1-isopropyl-1H-pyrazolo[4,3-c]pyridin-3-yl)piperazin-1-yl)propan-1-one]
8 | 469 | 1060 |  |  | CCC(C)n1nc(N2CC[C@@H](O)C2)c2cnc(Nc3ccnc(N4CCC5(CC4)CNC(=O)CO5)n3)cc21 (single isomer, unassigned) [Example 207, 9-(4-((1-((S*)-sec-Butyl)-3-((R)-3-hydroxypyrrolidin-1-yl)-1H-pyrazolo[4,3-c]pyridin-6-yl)amino)pyrimidin-2-yl)-1-oxa-4,9-diazaspiro[5.5]undecan-3-one]

Second part, the compound before the results:

Row | SMILES | Ki [1] [nM] | Ki [2] [nM] | EC50 [3] [nM] | EC50 [4] [nM]
9 | CC(C)n1nc(N2CCCC2=O)c2cnc(Nc3ccnc(-c4cnn(S(=O)(=O)C5CC5)c4)n3)cc21 [Example 106, 1-(6-(2-(1-(Cyclopropylsulfonyl)-1H-pyrazol-4-yl)pyrimidin-4-ylamino)-1-isopropyl-1H-pyrazolo[4,3-c]pyridin-3-yl)pyrrolidin-2-one] | 2.1 | 1.6 | 57.8 | 232
10 | CC(n1nc(N2CC[C@@H](O)C2)c2cnc(Nc3ccnc(N4CC[C@](C)(O)[C@H](F)C4)n3)cc21)C(F)(F)F (relative stereo) [Example 79, (3RS,4SR)-3-Fluoro-1-(4-(3-((R)-3-hydroxypyrrolidin-1-yl)-1-((S*)-1,1,1-trifluoropropan-2-yl)-1H-pyrazolo[4,3-c]pyridin-6-ylamino)pyrimidin-2-yl)-4-methylpiperidin-4-ol] | 3.3 | 5.9 | 165 | 906
11 | CC[C@@H](C)n1nc(N2CC3(COC3)C2)c2cnc(Nc3ccnc(N4CC[C@@](C)(O)[C@@H](F)C4)n3)cc21 (single isomer, unassigned) [Example 68, (3R*,4S*)-1-{4-[1-((R)-sec-Butyl)-3-(2-oxa-6-azaspiro[3.3]hept-6-yl)-1H-pyrazolo[4,3-c]pyridin-6-ylamino]pyrimidin-2-yl}-3-fluoro-4-methylpiperidin-4-ol] | 3.2 | 10.2 | 157 | 851
12 | CCC(C)n1nc(N2CCS(=N)(=O)CC2)c2cnc(Nc3ccnc(N4CCC(C)(O)CC4)n3)cc21 (stereo not shown) [Example 89, 4-[1-(sec-Butyl)-6-[[2-(4-hydroxy-4-methylpiperidin-1-yl)pyrimidin-4-yl]amino]-1H-pyrazolo[4,3-c]pyridin-3-yl]-1-imino-4-thiomorpholin-1-one] | 26.5 | 46.9 | 5260 | 9980
13 | CC(C)n1nc(N2CCOCC2)c2cnc(Nc3ccnc(NCC(C)(C)S(C)(=O)=O)n3)cc21 [Example 100, N^4-(1-Isopropyl-3-morpholin-4-yl-1H-pyrazolo[4,3-c]pyridin-6-yl)-N^2-(2-methanesulfonyl-2-methylpropyl)pyrimidine-2,4-diamine] | 8.7 | 7.2 | 1060 | 1260
14 | CC(C)n1nc(N2CCC(C(N)=O)C2)c2cnc(Nc3ccnc(-c4cnn(S(=O)(=O)C5CC5)c4)n3)cc21 (stereo not shown) [Example 60, 1-(6-(2-(1-(cyclopropylsulfonyl)-1H-pyrazol-4-yl)pyrimidin-4-ylamino)-1-isopropyl-1H-pyrazolo[4,3-c]pyridin-3-yl)pyrrolidine-3-carboxamide] |  | 0.5 | 28.2 | 608
15 | CC(C)n1nc(C2=NC(C)(C)NC2=O)c2cnc(Nc3ccnc(N4CCC(C)(O)CC4)n3)cc21 [Example 95, 4-(6-(2-(4-Hydroxy-4-methylpiperidin-1-yl)pyrimidin-4-ylamino)-1-isopropyl-1H-pyrazolo[4,3-c]pyridin-3-yl)-2,2-dimethyl-1,2-dihydroimidazol-5-one] | 15.2 | 59.5 |  | 
16 | CC(C)n1nc(C#N)c2cnc(Nc3ccnc(-c4cnn(S(=O)(=O)C5CC5)c4)n3)cc21 [Example 93, 6-(2-(1-(Cyclopropylsulfonyl)-1H-pyrazol-4-yl)pyrimidin-4-ylamino)-1-isopropyl-1H-pyrazolo[4,3-c]pyridine-3-carbonitrile] | 110 | 65.4 |  | 
17 | CC(C)n1nc(C2(C)CCCO2)c2cnc(Nc3ccnc(N4CCC(C)(O)CC4)n3)cc21 (stereo not shown) [Example 94, 1-(4-(1-Isopropyl-3-(2-methyltetrahydrofuran-2-yl)-1H-pyrazolo[4,3-c]pyridin-6-ylamino)pyrimidin-2-yl)-4-methylpiperidin-4-ol] | 872 | > 2900 |  | 
18 | CC(C)n1nc(N2CCN(C(=O)C(C)(C)O)CC2)c2cnc(Nc3ccnc(N4CCC(C)(O)CC4)n3)cc21 [Example 78, 2-Hydroxy-1-(4-(6-(2-(4-hydroxy-4-methylpiperidin-1-yl)pyrimidin-4-ylamino)-1-isopropyl-1H-pyrazolo[4,3-c]pyridin-3-yl)piperazin-1-yl)-2-methylpropan-1-one] | 21.5 | 75.5 |  | 
19 | CC1CCC(C)N1c1nn(C(C)C)c2cc(Nc3ccnc(-c4cnn(S(=O)(=O)C5CC5)c4)n3)ncc12 (stereo not shown) [Example 91, N-(2-(1-(Cyclopropylsulfonyl)-1H-pyrazol-4-yl)pyrimidin-4-yl)-3-(2,5-dimethylpyrrolidin-1-yl)-1-isopropyl-1H-pyrazolo[4,3-c]pyridin-6-amine] | 20.2 | 20.4 |  | 
20 | CC(C)n1nc(NC2CNC(=O)C2)c2cnc(Nc3ccnc(N4CCC(C)(O)CC4)n3)cc21 (stereo not shown) [Example 77, 4-(6-(2-(4-Hydroxy-4-methylpiperidin-1-yl)pyrimidin-4-ylamino)-1-isopropyl-1H-pyrazolo[4,3-c]pyridin-3-ylamino)pyrrolidin-2-one] | 18.7 | 29.2 |  | > 10000
